In article PMC8453635, “Piperidine Azasugars Bearing Lipophilic Chains: Stereoselective Synthesis and Biological Activity as Inhibitors of Glucocerebrosidase (GCase)” (The Journal of Organic Chemistry, 2021):

What was measured:
α-galactosidase = target: T1, α-galactosidase (Homo sapiens, UniProt P06280); test: Human lysosomal glycosidase selectivity screening (leukocyte homogenate); type: biochemical; details: 1 mM, read-out: percentage of inhibition, α-Gal
T1 construct: from leukocytes isolated from healthy donors (controls); from tissue; host or cells: leukocytes from healthy donors, sonicated homogenate
T1 sequence (P06280 32-429): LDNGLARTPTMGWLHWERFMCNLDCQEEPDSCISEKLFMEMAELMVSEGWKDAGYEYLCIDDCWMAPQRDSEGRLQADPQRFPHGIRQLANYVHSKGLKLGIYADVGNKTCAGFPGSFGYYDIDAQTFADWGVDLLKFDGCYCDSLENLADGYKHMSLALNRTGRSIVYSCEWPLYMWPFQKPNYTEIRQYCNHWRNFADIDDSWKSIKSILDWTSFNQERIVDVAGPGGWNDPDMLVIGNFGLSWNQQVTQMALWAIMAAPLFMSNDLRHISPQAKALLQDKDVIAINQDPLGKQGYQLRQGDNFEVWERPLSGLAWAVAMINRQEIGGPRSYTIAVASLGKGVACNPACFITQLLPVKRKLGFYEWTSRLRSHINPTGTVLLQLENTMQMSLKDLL
Description: (§1) In order to avoid undesired inhibitory side effects of a potential new drug, it has to be selective for a given target. The selectivity of the newly synthesized compounds 14, 15, and 33·HCl toward GCase was then investigated, evaluating their inhibition at 1 mM concentration toward six other lysosomal glycosidases (namely, α-and β-mannosidases, α- and β-galactosidases, α-fucosidase, and α-glucosidase) in cell homogenates (leucocytes or lymphocytes) isolated from healthy donors. […] Indeed, only moderate inhibitory activity (ca. 50%) was found toward human β-galactosidase for both piperidines 14 and 15, while negligible inhibitory activity was detected in all other cases.
The effect of 1 mM concentration of 14, 15, and 33·HCl was assayed toward six lysosomal glycosidases other than GCase, namely, α-mannosidase, β-mannosidase, α-galactosidase, β-galactosidase, α-fucosidase from leukocytes isolated from healthy donors (controls) and α-glucosidase from lymphocytes isolated from healthy donors’ flesh blood (controls). […]
μL, Sigma –Aldrich) in acetate buffer (0.1 M, pH 4.5) containing sodium azide (0.02%) were incubated at 37 °C for 1 h. Th e reaction was stopped by addition of sodium carbonate (200 μL; 0.5M, pH 10.7) containing Triton X -100 (0.0025 %), and the fluorescence 4 -methylumbelliferone released by α-galactosidase activity was measured in SpectraMax M2 microplate reader ( λex=365 nm, λem=435 nm; Molecular Devices). […]
α-Fucosidase activity was measured in a flat -bottomed 96 -well plate. […]
(§2) α-Glucosidase activity was measured in a flat –bottomed 96 well plate. […] The reaction was stopped by the addition of a solution of sodium carbonate (200 µL; 0.5M, pH 10.7) containing Triton X -100 (0.0025 %), and the fluorescence of 4 -methylumbelliferone released by α-glucosidase activity was measured in […]
(§3) Figure S 48. […] The corresponding calculated percentage of inhibition is indicated above each bar.

α-fucosidase = target: T2, α-fucosidase (Homo sapiens, UniProt P04066); test: as above; type: biochemical; details: 1 mM, read-out: percentage of inhibition, α-Fuco
T2 construct: from leukocytes isolated from healthy donors (controls); from tissue; host or cells: leukocytes from healthy donors, sonicated homogenate
T2 sequence (P04066 32-466): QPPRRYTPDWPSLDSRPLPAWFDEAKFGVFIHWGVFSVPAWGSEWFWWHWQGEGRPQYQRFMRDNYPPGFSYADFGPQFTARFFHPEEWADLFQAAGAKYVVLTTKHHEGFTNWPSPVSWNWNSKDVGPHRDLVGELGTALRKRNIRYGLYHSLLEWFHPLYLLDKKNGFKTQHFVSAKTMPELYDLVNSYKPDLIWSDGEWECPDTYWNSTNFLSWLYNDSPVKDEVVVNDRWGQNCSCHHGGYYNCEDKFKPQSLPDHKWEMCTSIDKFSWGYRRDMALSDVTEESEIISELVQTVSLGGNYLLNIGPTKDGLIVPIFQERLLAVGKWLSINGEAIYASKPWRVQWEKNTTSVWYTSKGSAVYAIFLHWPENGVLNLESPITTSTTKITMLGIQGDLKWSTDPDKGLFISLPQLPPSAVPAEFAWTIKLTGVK
Description: as §1
The effect of 1 mM concentration of 14, 15, and 33·HCl was assayed toward six lysosomal glycosidases other than GCase, namely, α-mannosidase, β-mannosidase, α-galactosidase, β-galactosidase, α-fucosidase from leukocytes isolated from healthy donors (controls) and α-glucosidase from lymphocytes isolated from healthy donors’ flesh blood (controls). Isolated leukocytes or lymphocytes were disrupted by sonication, and a micro BCA protein assay kit (Sigma-Aldrich) was used to determine the total protein amount for the enzymatic assay, according to the manufacturer’s instructions (for more details, see the Supporting Information section). […]
α-Fucosidase activity was measured in a flat -bottomed 96 -well plate. […] The reaction was stopped by addition of sodium carbonate (200 μL; 0.5M, pH 10.7) containing Triton X -100 (0.0 025 %), and the fluorescence 4 -methylumbelliferone released by α- fucosidase activity was measured in SpectraMax M2 microplate reader ( λex=365 nm, λem=435 nm; Molecular Devices). […]
as §2, §3

Structure (SMILES)	inhibition at 1000 µM (α-galactosidase)	inhibition at 1000 µM (α-fucosidase)
CCCCCCCC[C@@H]1[C@@H](O)[C@H](O)[C@H](O)CN1C(CCCCCCC)CCCCCCC.Cl [compound 33·HCl, (2R,3R,4R,5R)-2-Octyl-1-(pentadecan-8-yl)-piperidine-3,4,5-triol Hydrochloride]	1%	5%
CCCCCCCC[C@H]1[C@@H](O)[C@H](O)[C@H](O)CN1CCCCCCCC [compound 14, (2S,3R,4R,5R)-1,2-Dioctylpiperidine-3,4,5-triol]	9%	25%
CCCCCCCC[C@@H]1[C@@H](O)[C@H](O)[C@H](O)CN1CCCCCCCC [compound 15, (2R,3R,4R,5R)-1,2-Dioctylpiperidine-3,4,5-triol]	8%	24%
